# Laboratory results taken from paper PMC9181852, “In Vivo and In Vitro Biological Evaluation and Molecular Docking Studies of Compounds Isolated from Micromeria biflora (Buch. Ham. ex D.Don) Benth” (Molecules, 2022).
# Experiments:
# [1] = Hot plate analgesic test; assay type: in vivo, mice (Balb/c)
# Protocol: (§1) Healthy mice (Balb/c) with weight ranging from 20 to 22 g and ages 9 to 10 weeks were used in this screening model. The grown animals were provided with standard laboratory conditions such as standard food and water ad libitum. The in vivo biological screening test was performed at the Department of Veterinary Medicine, College of Agriculture and Veterinary Medicine, Qassim University Buraydah, Saudi Arabia, as well as Swabi University, KP, Pakistan, according to published procedures.
# The analgesic effect of salicylalazine isolated from M. biflora was obtained with help of a hot plate according to the published method. The animals were distributed into different groups according to the previously reported method. A preliminary screening test was performed on the animals using a hot plate (Harvard apparatus) sustained at 55 ± 2 °C. […] Group I (positive control) was administered with the standard drug, while Group II (negative control) was administered with normal saline. The other groups of animals were administered with 2.5, 5, 10, 15, and 20 mg/kg (PO). […] To avoid tissue damage, a cut-off time of 30 s was used for every animal. The latency time was recorded for all groups (n = 6) at consistent intervals (30, 60, 90, and 120 min).
# [2] = Carrageenan-induced paw edema; assay type: in vivo, mice
# Protocol: as §1
# This model was used to identify the anti-inflammatory potency of salicylalazine purified from M. biflora according to the standard method. The animals were randomly distributed into different groups depending on the treatment. Group I was treated with distilled water (10 mL/kg), which acted as a negative control. […] After 30 min of the intraperitoneal subjection of the mentioned administrations, 1% carrageen (0.05 mL) was […] administrated in the right paw of each animal. The inflammation in every animal was recoded after 1–5 h of carrageenan treatment using a plethysmometer (LE 7500 plan lab S.L). The anti-inflammatory action of salicylalazine was measured using the following formula: Activity %=A−B /A×100 where A is the paw edema of the control group, and B is the paw edema of the screening group.
# [3] = system: NCI-H226; experiment: Anticancer MTT assay, NCI-H226; assay type: cell-based; conditions: Homo sapiens, 24 h
# Protocol: The MTT assay was used to assess the cytotoxicity of salicylalazine isolated from M. biflora as per the previously documented method. For the MTT assay, Gibco BRL was combined with 100 µg/mL of penicillin sodium salts, 10% FBS (Gibco), and sodium carbonate (2 mg/mL). The prepared medium was used to keep three human cancer cell lines: human hepatoma (HepG2), human A498, and renal NCI-h226 non-small cell lung). Mouse hepatocytes, including HepG2 and HepG-R, were planted in 96-well plates. The cell lines were preserved with salicylalazine (1.5–100 μM), hatched for 24 h, and then they were tracked using the MTT procedure^14. This method was used for all tested cell lines. The IC50 value of salicylalazine in different cell lines was calculated from the concentration-effect curves. The standard drug used in this experiment was paclitaxel.
# [4] = target: T1, COX-2 (Homo sapiens, UniProt P35354); experiment: In vitro COX-2 inhibition (screening kit); assay type: biochemical
# T1 construct: purchased
# T1 sequence (P35354 18-604): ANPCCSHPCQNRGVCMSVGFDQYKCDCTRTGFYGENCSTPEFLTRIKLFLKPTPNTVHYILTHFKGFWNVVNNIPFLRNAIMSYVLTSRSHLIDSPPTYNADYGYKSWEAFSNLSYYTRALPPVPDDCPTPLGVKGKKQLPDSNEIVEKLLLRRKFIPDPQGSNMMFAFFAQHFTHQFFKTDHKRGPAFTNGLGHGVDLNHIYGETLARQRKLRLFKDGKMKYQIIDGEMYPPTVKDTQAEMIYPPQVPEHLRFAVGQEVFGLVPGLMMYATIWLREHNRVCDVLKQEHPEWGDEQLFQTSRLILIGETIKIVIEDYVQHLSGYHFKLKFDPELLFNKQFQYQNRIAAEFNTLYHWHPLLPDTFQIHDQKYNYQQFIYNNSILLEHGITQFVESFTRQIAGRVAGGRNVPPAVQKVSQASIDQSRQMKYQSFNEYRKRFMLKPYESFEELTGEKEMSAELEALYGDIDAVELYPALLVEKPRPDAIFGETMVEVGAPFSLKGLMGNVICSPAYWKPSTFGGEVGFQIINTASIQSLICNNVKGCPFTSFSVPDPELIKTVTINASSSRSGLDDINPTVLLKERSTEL
# Protocol: (§2) The in vitro inhibition of cyclooxygenases (COX-1 and COX-2) by the isolated compounds was determined using screening kits.
# [5] = target: COX-1 (Homo sapiens, UniProt P23219); experiment: In vitro COX-1 inhibition (screening kit)
# Chain of COX-1 (P23219 24-599): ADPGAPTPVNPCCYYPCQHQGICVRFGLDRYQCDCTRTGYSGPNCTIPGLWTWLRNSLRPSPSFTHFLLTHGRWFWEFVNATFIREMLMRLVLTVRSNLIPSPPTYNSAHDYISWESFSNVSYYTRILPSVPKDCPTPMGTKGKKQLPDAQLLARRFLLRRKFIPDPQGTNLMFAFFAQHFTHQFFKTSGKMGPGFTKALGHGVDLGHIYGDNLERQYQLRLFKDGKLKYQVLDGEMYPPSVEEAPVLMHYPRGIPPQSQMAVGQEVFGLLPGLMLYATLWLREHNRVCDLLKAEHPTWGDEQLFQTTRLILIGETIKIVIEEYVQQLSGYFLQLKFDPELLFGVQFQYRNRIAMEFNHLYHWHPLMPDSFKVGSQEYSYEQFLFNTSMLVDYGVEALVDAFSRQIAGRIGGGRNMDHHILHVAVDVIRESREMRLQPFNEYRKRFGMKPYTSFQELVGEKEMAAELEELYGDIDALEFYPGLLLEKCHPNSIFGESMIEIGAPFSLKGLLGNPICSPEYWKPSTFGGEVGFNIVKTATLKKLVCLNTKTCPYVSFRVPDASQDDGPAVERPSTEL
# Protocol: as §2
smiles,measurement,setting,value
"Oc1ccccc1/C=N/N=C/c1ccccc1O [Salicylalazine, salicylalazine]",Latency time on hot plate,"[1]; dose 2.5 mg/kg, 30 min",13.33 ± 0.55 s
same,Latency time on hot plate,"[1]; dose 2.5 mg/kg, 60 min",14.40 ± 0.83 s
same,Latency time on hot plate,"[1]; dose 2.5 mg/kg, 90 min",14.33 ± 0.64 s
same,Latency time on hot plate,"[1]; dose 2.5 mg/kg, 120 min",14.01 ± 0.43 s
same,Latency time on hot plate,"[1]; dose 5 mg/kg, 30 min",15.12 ± 0.80 s
same,Latency time on hot plate,"[1]; dose 5 mg/kg, 60 min",18.09 ± 0.69 s
same,Latency time on hot plate,"[1]; dose 5 mg/kg, 90 min",18.03 ± 0.90 s
same,Latency time on hot plate,"[1]; dose 5 mg/kg, 120 min",17.97 ± 1.00 s
same,Latency time on hot plate,"[1]; dose 10 mg/kg, 30 min",18.65 ± 0.95 s
same,Latency time on hot plate,"[1]; dose 10 mg/kg, 60 min",20.89 ± 0.90 s
same,Latency time on hot plate,"[1]; dose 10 mg/kg, 90 min",20.77 ± 0.87 s
same,Latency time on hot plate,"[1]; dose 10 mg/kg, 120 min",19.97 ± 0.80 s
same,Latency time on hot plate,"[1]; dose 15 mg/kg, 30 min",21.43 ± 0.50 s
same,Latency time on hot plate,"[1]; dose 15 mg/kg, 60 min",22.89 ± 0.80 s
same,Latency time on hot plate,"[1]; dose 15 mg/kg, 90 min",22.00 ± 0.98 s
same,Latency time on hot plate,"[1]; dose 15 mg/kg, 120 min",21.65 ± 0.98 s
same,Latency time on hot plate,"[1]; dose 20 mg/kg, 30 min",23.00 ± 0.44 s
same,Latency time on hot plate,"[1]; dose 20 mg/kg, 60 min",23.90 ± 0.97 s
same,Latency time on hot plate,"[1]; dose 20 mg/kg, 90 min",22.80 ± 1.05 s
same,Latency time on hot plate,"[1]; dose 20 mg/kg, 120 min",22.79 ± 1.09 s
same,Attenuation of carrageenan-induced paw edema (maximum),"[2]; 15 mg/kg, after 3 h",80.98%
same,Inhibition of carrageenan-induced paw edema (maximum),"[2]; 20 mg/kg, 3 h after carrageenan",90.22%
same,Inhibition of carrageenan-induced paw edema,"[2]; 20 mg/kg, after 1 h",45.11%
same,IC50,[3],64.98 ± 0.11 µM
same,IC50,[4],9.08 ± 0.11 µM
same,SI,[4]; SI = IC50 (COX-1)/IC50 (COX-2),4.85
same,melting point,,215 to 218 °C
same,IC50,[5],44.1 ± 1.18 µM
